Assays:
Alternaia brassicicola = assay: Test Example C: Alternaria sooty spot on cabbage; type: in vivo; details: Alternaria sooty spot on cabbage; class of control value
Description: Seeds of a test plant (cabbage variety: Shikidori) were planted and cultivated until the cotyledons extended.
<Control Value> Control value=100{1−(n/3)}

[1] = system: Colletotrichum orbiculare; assay: Test Example H: Anthracnose on cucumber; details: Anthracnose on cucumber (Sagami Hanjiro); 250 ppm spray, 2.5 ml/pot; assessed 6 to 10 days after inoculation
Phytophthora infestans = assay: whole plant or invertebrate; type: in vivo; details: Late blight on tomato; class of control value
Botrytis cinerea = assay: Test Example B: Gray mold on tomato; details: Gray mold on tomato; class of control value
[2] = system: Blumeria graminis f. sp. hordei; assay: Test Example D: Powdery mildew on barley; details: Powdery mildew on barley; class of control value
Plasmopara viticola = assay: Test Example G: Downy mildew on vine; details: Downy mildew on vine (Neomuscat); 250 ppm spray, 2.5 ml/pot; assessed 7 to 10 days after inoculation
Puccinia recondita = assay: Test Example E: Brown rust on wheat; type: in vivo; details: Brown rust on wheat; class of control value
Magnaporthe grisea = assay: whole plant or invertebrate; type: in vivo; details: Blast on rice; class of control value

SMILES | Test C control value class (Alternaia brassicicola) | Test H control value class [1] | Test F control value class (Phytophthora infestans) | Test B control value class (Botrytis cinerea) | Test D control value class [2] | Test G control value class (Plasmopara viticola) | Test E control value class (Puccinia recondita) | Test A control value class (Magnaporthe grisea)
CCn1c(-c2ccc(Cl)cc2Cl)c(CC(C)C)ccc1=O [compound 135] | H (more than 50% control value) | H (more than 50% control value) | L (50% or less control value) | H (more than 50% control value) | H (more than 50% control value) | H (more than 50% control value) | H (more than 50% control value) | H (more than 50% control value)
CCn1c(-c2ccc(Br)cc2F)c(CC(C)C)ccc1=O [compound 136] | L (50% or less control value) | L (50% or less control value) | L (50% or less control value) | H (more than 50% control value) | H (more than 50% control value) | H (more than 50% control value) | H (more than 50% control value) | H (more than 50% control value)
CC(C)Cc1cc(Cl)c(=O)n(C)c1-c1ccc(Cl)cc1Cl [compound 137] | H (more than 50% control value) | H (more than 50% control value) | L (50% or less control value) | H (more than 50% control value) | H (more than 50% control value) | H (more than 50% control value) | H (more than 50% control value) | H (more than 50% control value)
CC(C)Cc1cc(Br)c(=O)n(C)c1-c1ccc(Cl)cc1Cl [compound 138] | H (more than 50% control value) | H (more than 50% control value) | L (50% or less control value) | H (more than 50% control value) | L (50% or less control value) | L (50% or less control value) | H (more than 50% control value) | H (more than 50% control value)
CCn1c(-c2ccc(Cl)cc2Cl)c(CC(C)C)cc(Cl)c1=O [compound 139] | H (more than 50% control value) | H (more than 50% control value) | L (50% or less control value) | H (more than 50% control value) | H (more than 50% control value) | H (more than 50% control value) | H (more than 50% control value) | H (more than 50% control value)
CCn1c(-c2ccc(Cl)cc2Cl)c(CC(C)C)cc(Br)c1=O [compound 140] | H (more than 50% control value) | H (more than 50% control value) | L (50% or less control value) | H (more than 50% control value) | H (more than 50% control value) | H (more than 50% control value) | H (more than 50% control value) | H (more than 50% control value)
CCn1c(-c2ccc(C)cc2F)c(CC(C)C)ccc1=O [compound 141] | H (more than 50% control value) | L (50% or less control value) | L (50% or less control value) | H (more than 50% control value) | H (more than 50% control value) | H (more than 50% control value) | H (more than 50% control value) | H (more than 50% control value)
CCn1c(-c2ccc(Br)cc2F)c(CC(C)C)cc(Br)c1=O [compound 142] | H (more than 50% control value) | H (more than 50% control value) | L (50% or less control value) | H (more than 50% control value) | H (more than 50% control value) | H (more than 50% control value) | H (more than 50% control value) | H (more than 50% control value)
CCn1c(-c2ccc(Br)cc2F)c(CC(C)C)cc(Cl)c1=O [compound 143] | H (more than 50% control value) | H (more than 50% control value) | L (50% or less control value) | H (more than 50% control value) | H (more than 50% control value) | H (more than 50% control value) | H (more than 50% control value) | H (more than 50% control value)
CCn1c(-c2ccc(F)cc2)c(CC(C)C)ccc1=O [compound 144] | H (more than 50% control value) | L (50% or less control value) | L (50% or less control value) | L (50% or less control value) | H (more than 50% control value) | H (more than 50% control value) | H (more than 50% control value) | L (50% or less control value)
CC(C)Cc1ccc(=O)n(C)c1-c1ccc(F)cc1 [compound 145] | H (more than 50% control value) | L (50% or less control value) | L (50% or less control value) | L (50% or less control value) | L (50% or less control value) | L (50% or less control value) | H (more than 50% control value) | L (50% or less control value)
CCn1c(-c2ccc(C)cc2F)c(CC(C)C)cc(Cl)c1=O [compound 146] | H (more than 50% control value) | L (50% or less control value) | L (50% or less control value) | H (more than 50% control value) | H (more than 50% control value) | H (more than 50% control value) | H (more than 50% control value) | H (more than 50% control value)
CCn1c(-c2ccc(C)cc2F)c(CC(C)C)cc(Br)c1=O [compound 147] | H (more than 50% control value) | L (50% or less control value) | L (50% or less control value) | H (more than 50% control value) | H (more than 50% control value) | H (more than 50% control value) | H (more than 50% control value) | H (more than 50% control value)
CCn1c(-c2ccc(F)cc2)c(CC(C)C)cc(Br)c1=O [compound 148] | H (more than 50% control value) | H (more than 50% control value) | L (50% or less control value) | H (more than 50% control value) | H (more than 50% control value) | H (more than 50% control value) | H (more than 50% control value) | H (more than 50% control value)
CCn1c(-c2ccc(F)cc2)c(CC(C)C)cc(Cl)c1=O [compound 149] | H (more than 50% control value) | H (more than 50% control value) | L (50% or less control value) | H (more than 50% control value) | H (more than 50% control value) | H (more than 50% control value) | H (more than 50% control value) | H (more than 50% control value)
CCn1c(-c2c(F)cc(F)cc2F)c(C(C)(C)O)cc(Cl)c1=O [compound 150] | H (more than 50% control value) | H (more than 50% control value) | L (50% or less control value) | H (more than 50% control value) | H (more than 50% control value) | H (more than 50% control value) | H (more than 50% control value) | H (more than 50% control value)
CCN(Cc1cc(Cl)c(=O)n(CC)c1-c1c(F)cc(F)cc1F)OC [compound 151] | H (more than 50% control value) | H (more than 50% control value) | L (50% or less control value) | H (more than 50% control value) | H (more than 50% control value) | H (more than 50% control value) | H (more than 50% control value) | H (more than 50% control value)

From US11147272B2, “Pyridone compounds and agricultural and horticultural fungicides comprising the same as active ingredients” (MITSUI CHEMICALS AGRO, INC., priority 2017, dated 2021)
